In one test the test system is MCF-7 xenograft tumours. Kind of test: MCF-7/tRXRα xenograft tumours, western blotting. Format: in vivo, nude mice. The following applies: MCF-7/tRXRα tumour; K-80003 20 mg kg^−1 i.p., 12 days. Here is the method:
Proteins or cell lysates were electrophoresed by SDS-PAGE gel and transferred to polyvinylidene difluoride (PVDF) membrane. The membranes were blocked with 5% skimmed milk in TBST (50 mM Tris-HCl (pH 7.4), 150 mM NaCl and 0.1% Tween20) for 1 h, then incubated with primary antibodies and secondary antibodies and detected using ECL system (Thermo). The dilutions of the primary antibodies were anti-RXRα (ΔN197, Santa Cruz) in 1:1,000, anti-PARP (H-250, Santa Cruz) in 1:3,000, anti-p85α (Millipore) in 1:1,000, anti-p-AKT (D9E, Cell Signaling Technology) in 1:1000, anti-AKT1/2/3 (H-136, Santa Cruz) in 1:1,000, anti-β-actin (Sigma) in 1:5,000, anti-c-myc (9E10, Santa Cruz) in 1:3,000, anti-HA (F-7, Santa Cruz) in 1:3,000, anti-Flag (F1804, Sigma) in 1:3,000. Images of all uncropped western blots can be found in Supplementary Figs 10–14.
For nude mice xenograft study, Myc-RXRα and Myc-tRXRα cloned into pcdna3.0 vector were stably transfected into MCF-7 cells, and the resulting stable clones and control clone (2 × 10^6 cells in 100 μl) were injected subcutaneously into nude mice (BALB/c, SPF grade, 16–18 g, 4–5-week old). For drug treatment, mice were intraperitoneally injected (i.p.) daily with K-80003 (20 mg kg^−1) diluted in Tween-80 or vehicle (tween-80). Body weight and tumour size were measured every 2 days. […]

Another test concerns PyMT mammary tumour. Kind of test: MMTV-PyMT transgenic mice, mammary tumour. Format: in vivo. The conditions noted are these: 4-week old MMTV-PyMT mice; diet with K-80003 (100 mg kg^−1) for 4 weeks. Here is the method:
(§1) For nude mice xenograft study, Myc-RXRα and Myc-tRXRα cloned into pcdna3.0 vector were stably transfected into MCF-7 cells, and the resulting stable clones and control clone (2 × 10^6 cells in 100 μl) were injected subcutaneously into nude mice (BALB/c, SPF grade, 16–18 g, 4–5-week old). For drug treatment, mice were intraperitoneally injected (i.p.) daily with K-80003 (20 mg kg^−1) diluted in Tween-80 or vehicle (tween-80). Body weight and tumour size were measured every 2 days. Mice were killed after 12-day drug treatment and the tumours removed for various assessments. For MMTV-PyMT transgenic mouse study, 4-week old female mice of a transgenic mouse on the FVB/N genetic background expressing the PyMT oncogene under the control of MMTV LTR promoter[40] were fed with diet containing with or without K-80003 (100 mg kg^−1) for 4 weeks. Estimation of tumour appearance was performed by palpation once every day. Tumour tissues of left thoracic mammary glands were excised after the treatment. Portion of tissues was used to prepare extracts for western blotting, while the rest was fixed in 4% phosphate-buffered paraformaldehyde, and used for immunohistochemical staining using anti-Ki67 antibody and immunostaining using Δ197 anti-RXRα antibody. All experimentations and animal usage were performed and approved by the Animal Care and Use Committee of Xiamen University.

Another test has as its system RXRα-LBD/L433D. Kind of test: Non-denaturing gel electrophoresis, L433D mutant. Format: biochemical, human. The following applies: K-80003 (20 μM), 3 h at 4 °C. Here is the method:
(§2) The human RXRα LBD (residues Thr223 to Thr462) cloned as an N-terminal histidine-tagged fusion protein in pET15b expression vector was expressed in Escherichia coli BL21 strain (Stratagene). After sonication, cell extract was incubated with the His60 Ni Superflow resin, and His-tagged RXRα-LBD-resin complexes were washed, eluted and concentrated to 5 mg ml^−1 for subsequent trails. For crystallization experiment, bovine thrombin (Sigma) was used to cleave the His tag from the purified His-tagged RXRα-LBD. The resulting His tag was removed on the Resource-Q column (GE) using 0.1–1 M NaCl gradient and the Tris-Cl pH 8 buffer. RXRα-LDB was further purified using gel filtration on a Superdex 200 2660 column (GE) pre-equilibrated with the 75 mM NaCl, 20 mM Tris-Cl buffer (pH 8).

The test system of another test is tRXRα/L433D. Kind of test: Subcellular localization of tRXRα/L433D, immunostaining. The conditions noted are these: MCF-7 cells; K-80003 (5 × 10^−6 M) for 3 h, then TNFα (10 ng ml^−1) for 30 min. Format: cell-based. Here is the method: Cells mounted on glass slides or tumour tissue frozen sections (5-μm-thick) were washed with PBS and fixed in 4% paraformaldehyde (PFA) for 15 min and permeabilized with PBS containing 0.1% Triton X-100 for 15 min. Fixed cells or tumour tissues were blocked with 5 mg ml^−1 BSA in PBS for 30 min at room temperature, followed with incubation with primary antibodies for 3 h and secondary antibodies at room temperature for 1 h and co-stained with 4′6′-diamidino-2-phenylindole (DAPI) to visualize nuclei. The images were taken under an LSM-510 confocal laser scanning microscope system (Carl Zeiss).

The next test relates to tRXRα/R316E. The test is described as follows: BS3 crosslinking, tRXRα/R316E. The conditions noted are these: MCF-7 cells, 9-cis-RA (10^−7 M) or K-80003 (5 × 10^−6 M) for 6 h. Format: cell-based. As for the experimental part:
(§3) Cell lysates were then prepared and incubated with bis[sulfosuccinimidyl] suberate (BS3, Pierce) dissolved in dimethyl sulfoxide to a final concentration of 1 mM. The reactions were stopped with protein gel loading buffer. Samples were resolved by SDS/PAGE in 8% acrylamide gels and protein bands were visualized by western blotting.

The next test deals with tRXRα/F313A. Kind of test: BS3 crosslinking, tRXRα/F313A. Format: cell-based. The conditions noted are these: MCF-7 cells, 9-cis-RA (10^−7 M) or K-80003 (5 × 10^−6 M) for 6 h. As for the experimental part: as §3
In another test the test system is RXRα-LBD/Q275E. Kind of test: Non-denaturing gel electrophoresis, Q275E mutant. The conditions noted are these: K-80003 (20 μM), 3 h at 4 °C. Format: biochemical, human. Here is the method: as §2
In another test the target is T1, RXRα-LBD (Homo sapiens, UniProt P19793).
T1 construct: The human RXRα LBD (residues Thr223 to Thr462); made in house; host or cells: Escherichia coli BL21
T1 sequence (P19793 223-462): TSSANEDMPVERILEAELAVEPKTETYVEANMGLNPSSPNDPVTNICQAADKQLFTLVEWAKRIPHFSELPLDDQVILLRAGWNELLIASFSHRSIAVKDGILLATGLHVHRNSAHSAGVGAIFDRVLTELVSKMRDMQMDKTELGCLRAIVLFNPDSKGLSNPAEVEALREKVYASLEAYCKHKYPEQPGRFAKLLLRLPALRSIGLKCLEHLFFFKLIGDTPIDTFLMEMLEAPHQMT
Kind of test: Non-denaturing gel electrophoresis, oligomeric state of RXRα-LBD. The conditions noted are these: purified RXRα-LBD; 9-cis-RA (0.5 μM) and/or K-80003 (20 μM), 3 h at 4 °C. Format: biochemical. As for the experimental part:
as §2

The next test deals with MMTV-PyMT mammary tumour. The test is described as follows: MMTV-PyMT tumours, Ki-67 immunostaining. The conditions noted are these: diet with K-80003 (100 mg kg^−1) for 4 weeks; Ki-67 positive cells scored from 500 cells. Format: in vivo, MMTV-PyMT mice. Here is the method:
as §1, with “Portion of tissues was used to prepare extracts for western blotting, while the rest was fixed in 4% phosphate-buffered paraformaldehyde, and used for immunohistochemical staining using anti-Ki67 antibody and immunostaining using Δ197 anti-RXRα antibody. All experimentations and animal usage were performed and approved by the Animal Care and Use Committee of Xiamen University.” left out
(a) Expression of tRXRα in MMTV-PyMT mammary tumors analyzed by Western blotting using ΔN197 anti-RXRα antibody.
(b) Tumor sections from MMTV-PyMT mice fed with vehicle or K-80003 were immunostained with anti-Ki-67 antibody. Ki-67 positive cells were scored from 500 cells. […]

Molecules are shown by their SMILES.

Take `CC1=C(CC(=O)O)c2cc(F)ccc2/C1=C\c1ccc(C(C)C)cc1` [K-80003]: in the test on MCF-7 xenograft tumours, the “AKT activation in tumours” value is “reduced AKT activation” and the “PARP cleavage in tumours” value is on record as “enhanced PARP cleavage”. The “growth of PyMT mammary tumour” value in the test on PyMT mammary tumour is reported as “potently inhibited the growth of PyMT mammary tumour”. Also, in the test on RXRα-LBD/L433D, the “effect on tetramerization of RXRα-LBD/L433D” value is “failed to bind to RXRα-LBD/L433D (Supplementary Fig. 5a) and promote its tetramerization”. In addition, the “effect on cytoplasmic colocalization of p85α with tRXRα/L433D” value in the test on tRXRα/L433D is listed as “not affected by K-80003”. Also, in the test on tRXRα/R316E, the “oligomeric state of tRXRα/R316E” value was “strong tetrameric species of tRXRα/R316E but not tRXRα/F313A independent of the presence of 9-cis-RA or K-80003”. In addition, the “oligomeric state of tRXRα/F313A” value with tRXRα/F313A was “strong tetrameric species of tRXRα/R316E but not tRXRα/F313A independent of the presence of 9-cis-RA or K-80003”. Further, the “effect on tetramerization of Q275E mutant” value in the test on RXRα-LBD/Q275E is on record as “impaired the tetramerization of respective mutants by K-80003”. Besides, the “effect on RXRα-LBD oligomeric state” value at RXRα-LBD is on record as “induced an accumulation of tetramers”. The “tumour cell proliferation (Ki-67)” value in the test with MMTV-PyMT mammary tumour is recorded as “inhibition of tumour cell proliferation”.

For the origin of these results see paper PMC5520057, “Modulation of nongenomic activation of PI3K signalling by tetramerization of N-terminally-cleaved RXRα” (Nature Communications, 2017).
